Results on 4 compounds are retold here after patent publication US5045531A, “Wound treatment employing biologically active ion channel forming peptides and proteins” (Magainin Sciences Inc., priority 1989, dated 1991).

No end group written: not given here.

In test [1] the test system is full excision wound. Description: Wound contraction of 15 mm x 15 mm square full excision wound on the back of rats. The following applies: for average wound contraction: at seven days, control group 67%. Type of test: in vivo, rat. From the text:
(§1) Twenty-two male rats weighing between 300 g and 325 g were anesthetized, after which their backs and abdomens were shaved and washed with 70% ethanol. Three modified polyvinylchloride sponge discs 2 mm thick and 15 mm in diameter were implanted in each rat abdominally in subcutaneous pockets made under the skin. Two of the implants were cut in half and rejoined before the implantation, and the remaining disc was sandwiched between two silicone discs which forced granulation tissue infiltration to occur from the periphery of the disc. A single 15 mm×15 mm square full excision wound was made on the back and the wound edges tattooed.
(§2) The rats were then divided into four groups. A first, or control, group of four rats received sham injections daily. A second group of four rats received daily intramuscular injections of 10 mg of cortisone acetate. Cortisone is known to be an inhibitor of wound healing. A third group of seven rats received daily intramuscular injections of 0.3 mg of amide-terminated Magainin II. A fourth group of seven rats received daily intramuscular injections of 10 mg of cortisone acetate and 0.3 mg of Magainin II at separate sites. At seven days, rat weights were recorded, wound sizes measured, and the implants harvested. The staple which joined the two disc halves together was carefully removed and the breaking strength measured. Collagen content from the implant halves from each treatment group was measured by weighing the pepsin extracted native collagen. The sponge halves are homogenized in 0.5M ice-cold acetic acid containing 0.1 mg of pepsin per ml. The homogenate was stirred for 24 hours at 4° C., centrifuged, and supernatants saved. The native solubilized collagen was isolated by adding sodium chloride to 10 % w/v. The salt precipitate was collected by centrifugation (10,000× g for 10 min.) and then taken up in 145 mM potassium phosphate buffer pH7.6, exhaustively dialyzed against 1 mM HCl, lyophilized and its dry weight recorded. Confirmation of collagen purity was made by SDS polyacrylamide gel electrophoresis. Pepsin digestion extracts only native collagen, needed for the formation of collagen fibers. The accumulations of collagen in the early stages of healing are responsible for gain in wound tensile strength. Collagen content from the implants taken from the group treated with cortisone acetate alone averged 0.82 mg/sponge, as compared with 3.43 mg/sponge for the control group.

Test [2] deals with polyvinylchloride sponge disc implants (wound healing). Description: Collagen content of subcutaneous polyvinylchloride sponge disc implants in rats (pepsin extracted native collagen). In kind it is in vivo, rat. The following applies: at seven days, control group 3.43 mg/sponge.
Source text: as §1
as §2, with “Pepsin digestion extracts only native collagen, needed for the formation of collagen fibers. The accumulations of collagen in the early stages of healing are responsible for gain in wound tensile strength. Collagen content from the implants taken from the group treated with cortisone acetate alone averged 0.82 mg/sponge, as compared with 3.43 mg/sponge for the control group.” left out

Test [3] shares this test system. Briefly: Wound breaking strength of rejoined sponge disc halves implanted in rats. In kind it is in vivo, rat. Conditions: at seven days, control group 440 g.
Source text: as §1
as §2, with “Pepsin digestion extracts only native collagen, needed for the formation of collagen fibers. The accumulations of collagen in the early stages of healing are responsible for gain in wound tensile strength. Collagen content from the implants taken from the group treated with cortisone acetate alone averged 0.82 mg/sponge, as compared with 3.43 mg/sponge for the control group.” left out

Test [4] deals with cortisone inhibition of wound healing. The following applies: antagonism of cortisone-inhibited wound healing; cited from earlier work.
The mark [5] stands for this setting: 0.3 mg Magainin II plus 10 mg cortisone acetate daily intramuscular at separate sites.
The mark [6] stands for this setting: Magainin II alone, 0.3 mg daily intramuscular.
Setting [7] is: cortisone acetate alone, 10 mg daily intramuscular.

In the case of “GIGKFLHSAKKFGKAFVGEIMNS-NH2 [Magainin II]”, the results for the average wound contraction in test [1] (setting [5]) and in test [1] (setting [6]) were 53% and 65%, respectively. The “effect on cortisone inhibition of wound healing (collagen deposition and wound contraction)” value in test [1] (rats given cortisone acetate and Magainin II, conclusion in words) is “antagonistic of cortisone inhibition of wound healing”. In addition, the average collagen content was determined as 3.20 mg/sponge in test [2] (setting [5]) and 3.82 mg/sponge in test [2] (setting [6]). The “average wound breaking strength” value in test [3] (setting [5]) worked out at 320 g; in test [3] (setting [6]) it was 415 g.
Vitamin A: in test [4], the “restoring connective tissue deposition” value is reported as “effective in restoring connective tissue deposition” and the restoring wound contraction entry is reported as “ineffective in restoring wound contraction”.
For the compound `CC(=O)OCC(=O)[C@@]1(O)CC[C@H]2[C@@H]3CCC4=CC(=O)CC[C@]4(C)[C@H]3C(=O)C[C@@]21C` [cortisone acetate], the average wound contraction in test [1] (setting [7]) amounted to 28%. This compound had an average collagen content in test [2] (setting [7]) of 0.82 mg/sponge. Also, in test [3] (setting [7]), the “average wound breaking strength” value was found to be 195 g.
Turning to “growth hormone: other antagonist of cortisone inhibition of wound healing”, in test [4], the “restoring connective tissue deposition” value is recorded as “effective in restoring connective tissue deposition” and the restoring wound contraction entry is “ineffective in restoring wound contraction”.
